Measurements reported in the supplement of paper PMC10307832.

What was measured:
Experiment in all cases: relative viability (nuclei count vs DMSO), 5 days (fraction); higher = more cells survive
Omipalisib + Palbociclib = compound: COc1ncc(-c2ccc3nccc(-c4ccnnc4)c3c2)cc1NS(=O)(=O)c1ccc(F)cc1F [Omipalisib] + CC(=O)c1c(C)c2cnc(Nc3ccc(N4CCNCC4)cn3)nc2n(C2CCCC2)c1=O [Palbociclib] (partner 0.5 µM)
Method in brief: (§1)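 Relative viability was taken as the ratio of nuclei in treated wells to nuclei in vehicle wells. Lung cancer cell lines in 1536-well plates received compounds by pin tool one day after seeding, either one drug alone or a fixed anchor-drug dose plus five library-drug doses (not always all listed) in √10 steps. Nuclei were counted on 4× images after 5 days of treatment, and values are medians of duplicate plates.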

Omipalisib + Foretinib = compound: COc1ncc(-c2ccc3nccc(-c4ccnnc4)c3c2)cc1NS(=O)(=O)c1ccc(F)cc1F [Omipalisib] + COc1cc2c(Oc3ccc(NC(=O)C4(C(=O)Nc5ccc(F)cc5)CC4)cc3F)ccnc2cc1OCCCN1CCOCC1 [Foretinib] (partner 0.25 µM)
Method in brief: as §1

Omipalisib + Olaparib = compound: COc1ncc(-c2ccc3nccc(-c4ccnnc4)c3c2)cc1NS(=O)(=O)c1ccc(F)cc1F [Omipalisib] + O=C(c1cc(Cc2n[nH]c(=O)c3ccccc23)ccc1F)N1CCN(C(=O)C2CC2)CC1 [Olaparib] (partner 8 µM)
Method in brief: as §1

Omipalisib + AZD7762 = compound: COc1ncc(-c2ccc3nccc(-c4ccnnc4)c3c2)cc1NS(=O)(=O)c1ccc(F)cc1F [Omipalisib] + NC(=O)Nc1cc(-c2cccc(F)c2)sc1C(=O)N[C@H]1CCCNC1 [AZD7762] (partner 0.2 µM)
Method in brief: as §1

Omipalisib + Dasatinib = compound: COc1ncc(-c2ccc3nccc(-c4ccnnc4)c3c2)cc1NS(=O)(=O)c1ccc(F)cc1F [Omipalisib] + Cc1nc(Nc2ncc(C(=O)Nc3c(C)cccc3Cl)s2)cc(N2CCN(CCO)CC2)n1 [Dasatinib] (partner 0.075 µM)
Method in brief: as §1

Omipalisib + Phenformin = compound: COc1ncc(-c2ccc3nccc(-c4ccnnc4)c3c2)cc1NS(=O)(=O)c1ccc(F)cc1F [Omipalisib] + N=C(N)NC(=N)NCCc1ccccc1 [Phenformin] (partner 250 µM)
Method in brief: as §1

Cell Line | relative viability (Omipalisib + Palbociclib; first compound 0.0003 µM) | relative viability (Omipalisib + Palbociclib; first compound 0.003 µM) | relative viability (Omipalisib + Palbociclib; first compound 0.03 µM) | relative viability (Omipalisib + Foretinib; first compound 0.0003 µM) | relative viability (Omipalisib + Foretinib; first compound 0.003 µM) | relative viability (Omipalisib + Foretinib; first compound 0.03 µM) | relative viability (Omipalisib + Olaparib; first compound 0.0003 µM) | relative viability (Omipalisib + Olaparib; first compound 0.003 µM) | relative viability (Omipalisib + Olaparib; first compound 0.03 µM) | relative viability (Omipalisib + AZD7762; first compound 0.0003 µM) | relative viability (Omipalisib + AZD7762; first compound 0.003 µM) | relative viability (Omipalisib + AZD7762; first compound 0.03 µM) | relative viability (Omipalisib + Dasatinib; first compound 0.0003 µM) | relative viability (Omipalisib + Dasatinib; first compound 0.003 µM) | relative viability (Omipalisib + Dasatinib; first compound 0.03 µM) | relative viability (Omipalisib + Phenformin; first compound 0.0003 µM) | relative viability (Omipalisib + Phenformin; first compound 0.003 µM) | relative viability (Omipalisib + Phenformin; first compound 0.03 µM)
NCI-H2405 | 0.507 | 0.392 | 0.312 | 1.01 | 0.756 | 0.39 | 0.854 | 0.679 | 0.388 | 0.725 | 0.484 | 0.312 | 0.213 | 0.204 | 0.166 | 0.401 | 0.285 | 0.184
NCI-H3122 | 0.168 | 0.153 | 0.144 | 0.942 | 0.802 | 0.522 | 0.696 | 0.585 | 0.356 | 1.01 | 0.613 | 0.432 | 0.641 | 0.0596 | 0.315 | 0.371 | 0.459 | 0.314
PC-3 [JPC-3] | 0.547 | 0.527 | 0.534 | 1.03 | 1.03 | 0.856 | 1.05 | 1.16 | 0.915 | 0.73 | 0.685 | 0.424 | 0.942 | 0.917 | 0.726 | 0.475 | 0.477 | 0.414
PC-14 | 0.521 | 0.614 | 0.327 | 0.904 | 0.961 | 0.967 | 0.343 | 0.404 | 0.42 | 0.294 | 0.327 | 0.18 | 0.31 | 0.237 | 0.079 | 0.537 | 0.639 | 0.368
RERF-LC-KJ | 1.04 | 0.846 | 0.555 | 0.786 | 0.58 | 0.594 | 0.883 | 0.763 | 0.562 | 0.867 | 0.554 | 0.514 | 0.757 | 0.509 | 0.407 | 0.416 | 0.371 | 0.28
SW 900 | 0.522 | 0.444 | 0.278 | 0.888 | 0.691 | 0.622 | 0.862 | 0.544 | 0.417 | 0.748 | 0.381 | 0.342 | 0.568 | 0.293 | 0.211 | 0.513 | 0.321 | 0.424
